What all share (format): cell-based
What all share (conditions): HCT-116

The target of experiment [1] is Lysine-specific histone demethylase 1A (Homo sapiens) (UniProt O60341). Put plainly: Inhibition of LSD1 in human HCT116 cells assessed as increase in cellular histone 3 dimethyllysine 9 level treated at increasing concentration after 48 hrs.
Experiment [2] shares this target. Put plainly: Inhibition of LSD1 in human HCT116 cells assessed as increase in cellular histone 3 methyllysine 4 level treated at increasing concentration after 48 hrs.
The target is the same in experiment [3]. Put plainly: Inhibition of LSD1 in human HCT116 cells assessed as increase in cellular histone 3 dimethyllysine 4 level treated at increasing concentration after 48 hrs.

We go through two compounds from ChEMBL document CHEMBL1155444, “(Bis)urea and (bis)thiourea inhibitors of lysine-specific demethylase 1 as epigenetic modulators” (J Med Chem, 2010).

Activity calls are given as the source filed them. No cut-off for these calls is given here.

Consider `C/N=C(\NC)NCCCNCCCNCCCN/C(=N/C)NC`, for which the inhibition entry in experiment [1] is “inactive”. Also, the inhibition entry in experiment [2] and in experiment [3] was “Active” throughout.

Turning to `N=C(NCCCNCCCCCCCNCCCNC(=N)NC(=N)NCCC(c1ccccc1)c1ccccc1)NC(=N)NCCC(c1ccccc1)c1ccccc1`, the inhibition entry in experiment [1] is “inactive”. In addition, the inhibition entry in experiment [2] and in experiment [3] was “Active” in each case.
